Laboratory results taken from patent US20200270225A1, “Chiral Diacylhydrazine Ligands for Modulating the Expression of Exogenous Genes via an Ecdysone Receptor Complex” (Intrexon Corporation, priority 2007, published 2020).

What was measured:
[1] = Dynamic vapor sorption analysis; format: physicochemical; conditions: for weight loss under desiccant condition: 20% RH; for weight gain: 70% RH, after dehydration
Description: At 70% RH, the weight gain is 6.3% for the R enantiomer and 6.2% for the racemate (data not shown), indicating moderate hygroscopicity for both materials.

[2] = Solubility and appearance of 20 mg/mL preparations in Labrasol; format: physicochemical; conditions: sonicated at 25-28° C.
Protocol: These Labrasol dosing preparations utilized micronized R enantiomer, but non-micronized racemate. To address the possibility that the non-micronized racemate specimen might bias its dissolution rate in Labrasol, an independent experiment was performed. In this experiment, the solubility and appearance of 20 mg/mL preparations of micronized and non-micronized racemate were examined. Micronized racemate (lot REH-28-9-1/PYAP-2-8-2-2M), non-micronized racemate (lot # PYAP-2-8-2-2), and micronized R enantiomer (lot # REH-28-4-2) were each suspended in Labrasol, swirled by hand, and then sonicated in a Branson 2100 table top sonicator at 25-28° C. for 3×5 min intervals and a 1×10 min interval, interspersed with swirling by hand. […] By visual inspection, the quantity of undissolved material in micronized and non-micronized racemate samples was substantially the same. […] Some larger crystal fragments remained in the non-micronized sample. Since both micronized and non-micronized samples of racemate result in similar amounts of undissovled material, it appears that the major difference between R enantiomer and racemate Labrasol preparations is the intrinsic solubility rather than the starting particle size of the solute.

[3] = test system: murine IL-12 under the control of the RTS; experiment: In vivo induction of transgene IL-12 from Ad-RTS-mIL-12 transduced B16 tumor cells; design: species or system C57BL/6 mice; conditions: for IL-12 expression levels after ligand treatment discontinued: ligand discontinued for 3 days; for transgene IL-12 expression in tumor and serum, dose pattern: oral gavage 0, 3, 10, 30, 50 mg/kg daily for 3 days
Protocol: The transgene tested in this example was murine IL-12 under the control of the RTS. Mouse melanoma cells (B16) were transduced with an adenoviral vector Ad-RTS-mIL-12 that carries the murine IL-12 transgene under the control of RTS. These cells were injected subcutaneously (s.c.) into the C57BL/6 mice (histocompatible with B16 cells) and the mice were treated with different doses of the R enantiomer and racemic 2-ethyl-3-methoxy-benzoic acid N′-(1-tert-butyl-butyl)-N′-(3,5-dimethyl-benzoyl)-hydrazide for three days. The control groups included the mice receiving untransduced B16 cells and the higher dose of ligand and another group receiving the transduced B116 cells and no ligand. […] Tumor extracts and serum were prepared and assayed for IL-12 by ELISA.
The remaining mice were used for testing the transgene turn-off when the ligand administration is discontinued for an additional 72 hours.
Materials and Methods: B16 cells were infected with Ad-RTS-mIL-12 (MOI=100) in vitro. After 48 h, 5×10^5 (B16, right flank) cells were injected s.c. into C57 BL/6 mice (10 mice/group). The R enantiomer and racemate ligands were dissolved in Labrasol by heating a 10 mg/mL mixture at 50° C. for 5 minutes. Both ligands were dissolved in Labrasol based on visual inspection. Activating ligands were provided via oral gavage at the following doses (0 mg/kg; 3 mg/kg; 10 mg/kg; 30 mg/kg and 50 mg/kg) daily for 3 days. Additional controls included B16-bearing mice receiving ligand only (50 mg/kg/day for 3 days and untreated tumor-bearing mice). Five mice/group were harvested for isolation of tumor lesions and peripheral blood. Tissue was homogenized in 1 ml total of phosphate-buffered saline. Lysate/serum was cryopreserved at −80° C. The alternate 5 mice/group were allowed to sit for an additional 72 h in the absence of further ligand administration. These latter 5 mice/group were harvested for isolation of tumor lesions and peripheral blood. Tissue was homogenized as above, and cryopreserved and lysate/serum was cryopreserved at −80° C. Specimens were thawed at 37° C. in water bath and analyzed for mIL-12p70 and also mIFN-γ, a corollary IL-12-dependent cytokine important for CTL trafficking into tumors, using specific ELISAs (BD-Pharmingen).

[4] = Solubility in pharmaceutical excipients, Assay 1 (qualitative); format: physicochemical
Protocol: The solubility of micronized R enantiomer and racemate of 2-Ethyl-3-methoxy-benzoic acid N′-(1-tert-butyl-butyl)-N′-(3,5-dimethyl-benzoyl)-hydrazide was assessed qualitatively in commercially-available excipients (FIG. 9). Initial solutions/suspensions of 10 mg/g (test article/excipient) in glass vials were prepared by sonication at room temperature for 15 minutes with swirling for 30 seconds at 5 minute intervals, followed by heating in an aluminum block at 50° C. for 12 minutes with swirling for 30 seconds at 3 minute intervals. Based on the appearance of this initial 10 mg/g excipient sample, a 2-4 point concentration continuum was scanned by up or down sampling at several of the following points: 5, 10, 15, 20, 30, 50 mg/g (test article/excipient). […] Photos of several of the preparations in clear glass vials were taken (not shown).

[5] = Solubility in aqueous polysorbate 80, Assay 4; format: physicochemical
Description: Equilibrium solubility in formulation excipients and biological fluids influences drug bioavailability, although kinetics of dissolution may also be a limiting factor in determining bioavailability. The solubilities of R enantiomer and racemate of 2-ethyl-3-methoxy-benzoic acid N′-(1-tert-butyl-butyl)-N′-(3,5-dimethyl-benzoyl)-hydrazide were established quantitatively in aqueous preparations of the pharmaceutical surfactant polysorbate 80 and then the intrinsic dissolution rate of compacted test substance was observed. Mixtures of racemate and R enantiomer in 0.5%, 1%, and 1.5% polysorbate 80 solutions were prepared by addition of 20+/−1 mg test substance in a 2 mL Eppendorf vial, followed by 500 mg polysorbate solution. The mixture was bead-beaten for 120 second, shaken at 25° C. for 16 to 24 hours, and filtered using a Spin-X (0.2 μM). The pH of the filtrate was recorded. The concentration of test substance in the filtrate was measured by quantitative HPLC analysis (FIG. 12). The R enantiomer is 2-3× more soluble in 1.0 and 1.5% polysorbate 80 solutions.

[6] = test system: Caco-2 cell monolayers; experiment: Bidirectional permeability through Caco-2 cell monolayers; format: in vitro ADME
Protocol: The test compounds were prepared as 5 μM in HBSSg with a maximum DMSO concentration <1%. Confluent monolayers of Caco-2 cells, 21 to 28 days old were prepared. The receiver well was prepared with 1% BSA in modified Hanks buffer HBSSg, and the apical and basolateral sides of Caco-2 cell were maintained at pH 7.4±0.2. Two monolayers were dosed in each direction (N=2): the apical side was dosed for (A→B) assessment and the basolateral side was dosed for (B→A) assessment. The test compound concentration was measured for both apical and basolateral sides at a time point of 120 minutes using a generic LC/MS/MS method with a minimum 4 point calibration curve. The values in FIG. 13 are: the percent recovery of the test compound from Transwell® wells containing Caco-2 cell monolayers; apparent permeability (Papp) in both directions; efflux ratio (Papp B→A)/(Papp A→B); absorption potential of a test compound classified as either Low or High; efflux classification is significant when efflux ≥3.0 and Papp (B→A)≥1.0×10-6 cm/s. […] Also, the efflux rate for the R enantiomer is lower.

Compound | weight loss under desiccant condition [1] | weight gain [1] [%] | solubility and appearance in Labrasol [2] | IL-12 expression levels after ligand treatment discontinued [3] | transgene IL-12 expression in tumor and serum, dose pattern [3] | solubility in pharmaceutical excipients (qualitative) ([4]; all tested excipients except neat polysorbate 80, 5-50 mg/g) | solubility in neat polysorbate 80 (qualitative) ([4]; neat polysorbate 80) | solubility relative to racemate ([5]; 1.0 and 1.5% polysorbate 80 solutions, 25° C.) | solubility of racemate and R enantiomer compared ([5]; deionized water and 0.5% polysorbate 80) | efflux rate, compared ([6]; Caco-2) | apparent permeability (Papp), compared ([6]; Caco-2, A→B and B→A, 5 μM, 120 minutes) | IFN-γ levels in tumor and serum ([3]; mouse, in vivo)
CCCC(N(NC(=O)c1cccc(OC)c1CC)C(=O)c1cc(C)cc(C)c1)C(C)(C)C (racemic) [rac-1, rac-2-ethyl-3-methoxy-benzoic acid N′-(1-tert-butyl-butyl)-N′-(3,5-dimethyl-benzoyl)-hydrazide] | did not show any significant weight loss | 6.2 | remained cloudy with suspended fine particles | dropped to similar proportions in all the treatment groups | dose-dependent pattern | – | – | – | – | – | – | –
CCC[C@@H](N(NC(=O)c1cccc(OC)c1CC)C(=O)c1cc(C)cc(C)c1)C(C)(C)C [Example 1, (R)-3,5-Dimethyl-benzoic Acid N-(1-tert-butyl-butyl)-N′-(2-ethyl-3-methoxy-benzoyl)-hydrazide] | 0.9 % of total weight | 6.3 | readily dissolved | dropped to similar proportions in all the treatment groups | dose-dependent pattern | more soluble than racemate | comparably soluble | 2-3 × | comparable | lower | more permeable than the racemate in both directions | clearly showed enhanced expression
